Like-named read-outs stand apart in the source and are kept apart here.
Legend:
[1] = test system: sumoylation levels (SUMO 2/3 conjugates) in HCT-116 cells; assay: HCT-116 4 Hour Cell Assay (Western, SUMO 2/3 conjugates); assay type: cell-based; conditions: 4 h treatment, Anti-Sumo 2-3 immunoblot, read-out: HCT-116 Western 4 h IC50 (μM) Ave
Procedure: This protocol describes the procedures used to assess the effects of compounds of interest on sumoylation levels. Immunoblot of SUMO 2/3 conjugates are performed and IC50 curves are generated upon quantification of sumoylations bands. HCT-116 cells are seeded in a 12 well plate (500,000 cells/well). The following day the cells are treated with compounds of interest (resuspended in DMSO) for 4 hours (11 concentrations with a three-fold dilution; starting concentration 25 μM) Following 4 hours of incubation the cells are washed with ice cold PBS 1×and protein extraction is performed with RIPA buffer supplemented with phosphatases and proteases inhibitors, 25 mM of NEM and 50 units/mL of Benzonase. Samples undergo centrifugation at 13,000 RPM, 4° C., for 10 minutes and the supernatant is collected. Protein quantification is performed using BCA. Non-Reducing Laemmli Buffer is added to the samples. Samples are heated at 75° C. for 10 minutes, and are centrifuged for 3 minutes at 9000 RPM Nupage 4-12% Bis Tris gels and 1× MOPS buffer (Fisher Scientific)+1× NuPAGE Antioxidant (Invitrogen) are used to perform the SDS-PAGE gel electrophoresis (20 to 40 μg of proteins are loaded in the gels). Proteins are then transferred to PVDF membranes and the level of total proteins are measured by staining with Revert Total Protein Stain and the fluorescent bands are acquired using the LI-COR FC (700 nm for 1 min) Membranes are blocked for 5 minutes with Bio-Rad Blocking Buffer and are subsequently incubated over night at 4° C. with Anti-Sumo 2-3 mAb (M BL #M114-3, 1:1000 in Bio-Rad Blocking Buffer, 0.2% Tween 20) Membranes are washed with 1×TBS-T (3 times for 5 minutes) and sumoylation is detected using Li-cor IRDye 800CW Goat anti-Mouse IgG secondary antibody (1:10,000 dilution) upon 1 hour of incubation in blocking buffer with 0.2% Tween 20 and 0.01% SDS. After the incubation, the membranes are washed with 1×TBS-T (3 times for 5 minutes). To visualize the fluorescent bands the membranes are scanned with LI-COR FC (700 nm for 1 min and […] for 2 mins). Sumoylation levels are quantified upon normalization with total protein levels, using the LI-COR Image Studio Lite 5.2 Software.

SAE1 = SAE1 (Homo sapiens (Human), UniProt Q9UBE0+Q9UBT2); assay: SAE High Throughput Biochemical Assay (HTRF), 15 min preincubation; conditions: read-out: 15 min preincubation HTRF IC50 (μM) Ave, SAE1 12.5 nM, ATP 100 μM
Summary of the method: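 HTRF detection of SUMO transfer from SUMO-GST to UBC9-His (40 nM each) by SAE1 at 12.5 nM used 100 μM ATP in pH 7.5 HEPES buffer with 10 mM MgCl2 and 0.1% BSA. Enzyme and compound were preincubated 15 min at RT and the reaction ran 45 min, with readings after 2 h and overnight.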

Sequence of SAE1 (Q9UBE0 whole entry): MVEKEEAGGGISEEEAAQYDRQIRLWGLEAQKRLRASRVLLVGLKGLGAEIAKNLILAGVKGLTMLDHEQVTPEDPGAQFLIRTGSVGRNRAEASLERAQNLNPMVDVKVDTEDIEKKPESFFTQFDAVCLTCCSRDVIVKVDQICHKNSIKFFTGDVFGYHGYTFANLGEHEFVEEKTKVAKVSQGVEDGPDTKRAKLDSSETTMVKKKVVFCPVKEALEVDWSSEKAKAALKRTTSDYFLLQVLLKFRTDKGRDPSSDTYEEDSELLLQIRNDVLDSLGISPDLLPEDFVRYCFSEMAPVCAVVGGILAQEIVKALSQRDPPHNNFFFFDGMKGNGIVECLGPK
Sequence of SAE1 (Q9UBT2 whole entry): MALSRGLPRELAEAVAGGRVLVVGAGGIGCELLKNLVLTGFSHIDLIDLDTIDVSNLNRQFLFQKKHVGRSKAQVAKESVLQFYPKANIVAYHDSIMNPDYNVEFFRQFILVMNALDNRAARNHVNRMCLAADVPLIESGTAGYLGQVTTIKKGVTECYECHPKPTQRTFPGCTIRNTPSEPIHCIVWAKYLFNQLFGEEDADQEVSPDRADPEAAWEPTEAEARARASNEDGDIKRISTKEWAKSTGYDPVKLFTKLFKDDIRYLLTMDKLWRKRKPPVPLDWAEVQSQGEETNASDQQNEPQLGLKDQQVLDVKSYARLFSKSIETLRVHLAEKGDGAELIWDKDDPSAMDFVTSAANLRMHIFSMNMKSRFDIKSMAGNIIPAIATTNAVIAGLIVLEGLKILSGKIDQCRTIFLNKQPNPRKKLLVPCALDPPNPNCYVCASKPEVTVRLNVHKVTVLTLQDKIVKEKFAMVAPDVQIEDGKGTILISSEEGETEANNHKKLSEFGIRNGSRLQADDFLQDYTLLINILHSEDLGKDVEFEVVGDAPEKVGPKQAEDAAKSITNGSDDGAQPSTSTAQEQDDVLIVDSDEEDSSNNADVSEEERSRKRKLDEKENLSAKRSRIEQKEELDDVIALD

SMILES	IC50 ([1]; Homo sapiens, HCT-116, 4 h) [µM]	IC50 (SAE1) [µM]	IC50 [1] [µM]
CCn1cc(-c2ccccc2[C@@H]2CN(C(=O)/C=C/CN3CCCC3C)Cc3sc(C#N)cc32)c(C(F)(F)F)n1 (stereo partly drawn) [Example 31, (4S)-4-(2-(1-ethyl-3-(trifluoromethyl)-1 H-pyrazol-4-yl)phenyl)-6-((E)-4-(2-methylpyrrolidin-1-yl)but-2-enoyl)-4,5,6,7-tetrahydrothieno[2,3-c]pyridine-2-carbonitrile]	0.918	10.2	
CCn1cc(-c2ccccc2[C@@H]2CN(C(=O)/C=C/CN3CCC(C)C3)Cc3sc(C#N)cc32)c(C(F)(F)F)n1 (stereo partly shown) [Example 32]	2.05	3.9	
CCn1cc(-c2c(F)cccc2[C@@H]2CN(C(=O)/C=C/CN)Cc3sc(C#N)cc32)c(C(F)(F)F)n1 [Example 51, (S)-6-((E)-4-aminobut-2-enoyl)-4-((S)-2-(1-ethyl-3-(trifluoromethyl)-1 H-pyrazol-4-yl)-3-fluorophenyl)-4,5,6,7-tetrahydrothieno[2,3-c]pyridine-2-carbonitrile]	0.569	1.29	
[2H]C(C)(C)NC/C=C/C(=O)N1Cc2sc(C#N)cc2[C@H](c2cccc(F)c2-c2cn(CC)nc2C(F)(F)F)C1 [Example 52, (S, E)-4-(2-(1-ethyl-3-(trifluoromethyl)-1 H-pyrazol-4-yl)-3-fluorophenyl)-6-(4-((propan-2-yl-2-d)amino)but-2-enoyl)-4,5,6,7-tetrahydrothieno[2,3-c]pyridine-2-carbonitrile]	0.308	0.69	
CCn1cc(-c2c(F)cccc2[C@@H]2CN(C(=O)/C=C/[C@@H]3CCN3)Cc3sc(C#N)cc32)c(C(F)(F)F)n1 [Example 53, (S)-6-((E)-3-((S)-azetidin-2-yl)acryloyl)-4-((S)-2-(1-ethyl-3-(trifluoromethyl)-1 H-pyrazol-4-yl)-3-fluorophenyl)-4,5,6,7-tetrahydrothieno[2,3-c]pyridine-2-carbonitrile]	0.191	0.34	
CCn1cc(-c2c(F)cccc2[C@@H]2CN(C(=O)/C=C/[C@H]3CCN3)Cc3sc(C#N)cc32)c(C(F)(F)F)n1 [Example 54, (S)-6-((E)-3-((R)-azetidin-2-yl)acryloyl)-4-((S)-2-(1-ethyl-3-(trifluoromethyl)-1 H-pyrazol-4-yl)-3-fluorophenyl)-4,5,6,7-tetrahydrothieno[2,3-c]pyridine-2-carbonitrile]	0.57	0.55	
C=C(C(=O)N1Cc2sc(C#N)cc2[C@H](c2ccccc2-c2cn(CC)nc2C(F)(F)F)C1)C(F)(F)F [Example 60, (S)-4-(2-(1-Ethyl-3-(trifluoromethyl)-1 H pyrazol-4-yl)phenyl)-6-(2-(trifluoromethyl)acryloyl)-4,5,6,7-tetrahydrothieno[2,3-c]pyridine-2-carbonitrile]	2.59	1.36	
CCn1cc(-c2ccccc2[C@@H]2CN(C(=O)/C=C/[C@@H](N)CO)Cc3sc(C#N)cc32)c(C(F)(F)F)n1 [Example 74, (S)-6-((R, E)-4-Amino-5-hydroxypent-2-enoyl)-4-(2-(1-ethyl-3-(trifluoromethyl)-1 H-pyrazol-4-yl)phenyl)-4,5,6,7-tetrahydrothieno[2,3-c]pyridine-2-carbonitrile]	2.24	2.84	
CCn1cc(-c2ccccc2[C@@H]2CN(C(=O)/C=C/[C@@H]3CCC(C)(C)N3)Cc3sc(C#N)cc32)c(C(F)(F)F)n1 [Example 79, (S)-6-((E)-3-((S)-5,5-Dimethylpyrrolidin-2-yl)acryloyl)-4-(2-(1-ethyl-3-(trifluoromethyl)-1H pyrazol-4-yl)phenyl)-4,5,6,7-tetrahydrothieno[2,3-c]pyridine-2-carbonitrile]	0.324	1.77	
CCn1cc(-c2ccccc2[C@@H]2CN(C(=O)/C=C/[C@@H]3C[C@H](C)CN3)Cc3sc(C#N)cc32)c(C(F)(F)F)n1 [Example 80, (S)-4-(2-(1-Ethyl-3-(trifluoromethyl)-1H pyrazol-4-yl)phenyl)-6-((E)-3-((2S,4S)-4-methylpyrrolidin-2-yl)acryloyl)-4,5,6,7-tetrahydrothieno[2,3-c]pyridine-2-carbonitrile]	0.212	1.24	
CCn1cc(-c2ccccc2[C@@H]2CN(C(=O)/C=C/[C@H]3C[C@@H](C)CN3)Cc3sc(C#N)cc32)c(C(F)(F)F)n1 [Example 81, (S)-4-(2-(1-Ethyl-3-(trifluoromethyl)-1 H-pyrazol-4-yl)phenyl)-6-((E)-3-((2R, 4R)-4-methylpyrrolidin-2-yl)acryloyl)-4,5,6,7-tetrahydrothieno[2,3-c]pyridine-2-carbonitrile]	0.35	2.69	
CCn1cc(-c2ccccc2[C@@H]2CN(C(=O)/C=C/[C@H]3CC(C)(C)CN3)Cc3sc(C#N)cc32)c(C(F)(F)F)n1 [Example 82, (S)-6-((E)-3-((R)-4,4-Dimethylpyrrolidin-2-yl)acryloyl)-4-(2-(1-ethyl-3-(trifluoromethyl)-1H pyrazol-4-yl)phenyl)-4,5,6,7-tetrahydrothieno[2,3-c]pyridine-2-carbonitrile]	0.357	1.08	
CCn1cc(-c2ccccc2[C@@H]2CN(C(=O)/C=C/[C@@H]3CC(C)(C)CN3)Cc3sc(C#N)cc32)c(C(F)(F)F)n1 [Example 83, (S)-6-((E)-3-((S)-4,4-Dimethylpyrrolidin-2-yl)acryloyl)-4-(2-(1-ethyl-3-(trifluoromethyl)-1H pyrazol-4-yl)phenyl)-4,5,6,7-tetrahydrothieno[2,3-c]pyridine-2-carbonitrile]	0.309	0.76	
CCn1cc(-c2ccccc2[C@@H]2CN(C(=O)/C=C/[C@H](C)NC)Cc3sc(C#N)cc32)c(C(F)(F)F)n1 [Example 84, (S)-4-(2-(1-Ethyl-3-(trifluoromethyl)-1 H pyrazol-4-yl)phenyl)-6-((S, E)-4-(methylamino)pent-2-enoyl)-4,5,6,7-tetrahydrothieno[2,3-c]pyridine-2-carbonitrile]	0.503	2.79	
CCn1cc(-c2c(F)cccc2[C@@H]2CN(C(=O)/C=C/[C@@H]3C[C@H]4C[C@H]4N3)Cc3sc(C#N)cc32)c(C(F)(F)F)n1 [Example 92, (S)-6-((E)-3-((IR,3S,5R)-2-azabicyclo[3.1.0]hexan-3-yl)acryloyl)-4-(2-(1-ethyl-3-(trifluoromethyl)-1H pyrazol-4-yl)-3-fluorophenyl)-4,5,6,7-tetrahydrothieno[2,3-c]pyridine-2-carbonitrile]		0.4	0.451
CCn1cc(-c2ccccc2[C@@H]2CN(C(=O)/C=C/CNC3(C)CCOCC3)Cc3sc(C#N)cc32)c(C(F)(F)F)n1 [Example 96, (S,E)-4-(2-(1-Ethyl-3-(trifluoromethyl)-1H-pyrazol-4-yl)phenyl)-6-(4-((4-methyltetrahydro-2H pyran-4-yl)amino)but-2-enoyl)-4,5,6,7-tetrahydrothieno[2,3-c]pyridine-2-carbonitrile]	2.79	2.92	
CCNC/C=C/C(=O)N1Cc2sc(C#N)cc2[C@H](c2ccccc2-c2cn(CC)nc2C(F)(F)F)C1 [Example 99, (S, E)-4-(2-(1-Ethyl-3-(trifluoromethyl)-1 H-pyrazol-4-yl)phenyl)-6-(4-(ethylamino)but-2-enoyl)-4,5,6,7-tetrahydrothieno[2,3-c]pyridine-2-carbonitrile]	0.563	2.83	
